According to US9200008B2 (ASKA PHARMACEUTICAL CO., LTD., priority 2010, dated 2015):
Read-outs that look alike come from different tables or passages of the source.

How the values were obtained:
Assay type in all cases: cell-based
[1] = tested on: human fibrosarcoma cell lines (HT1080 cells); assay: Calculation of IC50 value, cell proliferation inhibitory activity by XTT assay, HT1080 cells (Test Example 2)
Description: Human prostate cancer cell lines (PC-3 cells) and human fibrosarcoma cell lines (HT1080 cells) were seeded to 96-well microplates so as to provide a density of 1,300 cells/well and that of 3,100 cells/well, respectively. In the presence of 5% CO2 at 37° C., the PC-3 cells and the HT1080 cells were cultured for 48 hours and 24 hours, respectively. Thereafter, each one of test substances was added to each well. As a control of a medical agent, DMSO was added. After the addition, both cells were continuously cultured for 72 hours. […] The XTT labeling mixture was added to each well in an amount of 50 μL per well, and the cells were cultured for another 4 hours. A culture solution containing a test substance was used as a blank, and the absorbencies of a culture solution containing the XTT labeling mixture at a measurement wavelength (450 nm) and a control wavelength (650 nm) were measured by a plate reader. The difference between these absorbencies was evaluated as an activity of dehydrogenase of mitochondria derived from living cells. With respect to the following model formula of sigmoid curve, the convergent solution of each variable (gain, range, base and α) that minimize the residual sum of squares of the difference between these absorbencies and regressive prediction was determined, and then IC50 (=e^α) of each test substance was calculated.

[2] = tested on: Human prostate cancer cell lines (PC-3 cells); assay: Calculation of IC50 value, cell proliferation inhibitory activity by XTT assay, PC-3 cells (Test Example 2); settings: 72 hours culture with test substance, read-out: Cell proliferation inhibitory activity (IC50 value calculated from XTT assay), concentration showing 50% inhibitory activity, human prostate cancer cell lines (PC-3)
Description: Human prostate cancer cell lines (PC-3 cells) and human fibrosarcoma cell lines (HT1080 cells) were seeded to 96-well microplates so as to provide a density of 1,300 cells/well and that of 3,100 cells/well, respectively. In the presence of 5% CO2 at 37° C., the PC-3 cells and the HT1080 cells were cultured for 48 hours and 24 hours, respectively. Thereafter, each one of test substances was added to each well. As a control of a medical agent, DMSO was added. After the addition, both cells were continuously cultured for 72 hours. Then, an XTT labeling reagent containing 1 mg/mL of sodium 3′-[1-(phenylaminocarbonyl)-3,4-tetrazolium]-bis(4-methoxy-6-nitro)benzenesulfonate hydrate (XTT) and an electronic coupling reagent containing 1.25 mM N-methyl dibenzopyrazine methyl sulfate (PMS) were mixed at a ratio of 50:1 to give an XTT labeling mixture. The XTT labeling mixture was added to each well in an amount of 50 μL per well, and the cells were cultured for another 4 hours. A culture solution containing a test substance was used as a blank, and the absorbencies of a culture solution containing the XTT labeling mixture at a measurement wavelength (450 nm) and a control wavelength (650 nm) were measured by a plate reader. The difference between these absorbencies was evaluated as an activity of dehydrogenase of mitochondria derived from living cells. With respect to the following model formula of sigmoid curve, the convergent solution of each variable (gain, range, base and α) that minimize the residual sum of squares of the difference between these absorbencies and regressive prediction was determined, and then IC50 (=e^α) of each test substance was calculated.
The IC50 values of the compounds represented by the formula (1) or the salts thereof on two cancer cell lines according to the method of Test Example 2 were calculated, and the results are shown in Table A.

[3] = tested on: Human prostate cancer cell lines (PC-3 cells); assay: Measurement of cell death-inducing activity (Test Example 1); settings: PC-3, 48 h, 48 hours after addition, tested at 10, 1, 0.1, 0.025 and 0.00625 μmol/L, qualitative evaluation of 10 fields, read-out: Concentration showing the cell death-inducing activity (cell death-inducing rate not less than 40%)
Outline: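 Compound treatment lasted 48 h at 10 to 0.00625 μmol/L (five levels, DMSO as control) on PC-3 cells pre-cultured 48 h at 37 °C, 5% CO2 after seeding at 1×10^5 cells/well. A cell death-inducing rate of 40% or more counted as active.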

[4] = HT1080 cells, 72 hours culture with test substance, XTT assay, read-out: Cell proliferation inhibitory activity (IC50 value calculated from XTT assay), concentration showing 50% inhibitory activity, human fibrosarcoma cell lines (HT1080)

Compound	IC50 [1, 4]	IC50 [2]	minimal effective concentration [3]	IC50 ([1]; read-out: Cell proliferation inhibitory activity (IC50 value calculated from XTT assay), concentration showing 50% inhibitory activity, human fibrosarcoma cell lines (HT1080), HT1080 cells, 72 hours culture with test substance, XTT assay)	IC50 ([1]; 72 h)
COc1cc(Cl)ccc1-c1nc(C)c(NC(=O)OCc2ccc3c(c2)nc2n3CCCC2)s1 [Example 9-1, [2-(4-Chloro-2-methoxyphenyl)-4-methylthiazol-5-yl]carbamic acid 1,2,3,4-tetrahydrobenzo[4,5]imidazo[1,2-a]pyridin-7-ylmethyl ester]	15.1 nM	6.7 nM	0.025 µM		
CCn1nnc2cc(COC(=O)Nc3sc(-c4ccc(C)cc4OC)nc3C)ccc21 [Example 9-25]		0.81 nM		1.64 nM	
COc1cc(C)ccc1-c1nc(C)c(NC(=O)OCc2ccc3c(c2)nc2n3CCOC2)s1 [Example 9-94]		0.56 nM	0.00625 µM		1.75 nM
COc1cc(C)ccc1-c1cc(COC(=O)Nc2ccc3c(c2)nc2n3CCOC2)n(C)n1 [Example 13-101]	4.19 nM	1.64 nM	0.00625 µM		
